Where a SMILES comes first, the peptide text is derived from it. [ ]: non-standard residue; d: D form. The star is where a group is joined. X1 = CC(C)CCC[C@@H](C)[C@H]1CC[C@H]2[C@@H]3CC[C@H]4C[C@@H](O*)CC[C@]4(C)[C@H]3CC[C@]12C; PEG4 = NCCOCCOCCOCCOCCC(=O)O; PEG3 = NCCOCCOCCOCCC(=O)O
Key:
β2-adrenergic receptor = molecular target: T1, β2-adrenergic receptor (Homo sapiens, UniProt P07550); assay: FRET nuclear ERK biosensor, isoprenaline-induced activation in HEK293 cells; assay type: cell-based; settings: selectivity control, endogenous receptor
T1 construct: endogenous in cells; host or cells: HEK293
T1 sequence (P07550 whole entry): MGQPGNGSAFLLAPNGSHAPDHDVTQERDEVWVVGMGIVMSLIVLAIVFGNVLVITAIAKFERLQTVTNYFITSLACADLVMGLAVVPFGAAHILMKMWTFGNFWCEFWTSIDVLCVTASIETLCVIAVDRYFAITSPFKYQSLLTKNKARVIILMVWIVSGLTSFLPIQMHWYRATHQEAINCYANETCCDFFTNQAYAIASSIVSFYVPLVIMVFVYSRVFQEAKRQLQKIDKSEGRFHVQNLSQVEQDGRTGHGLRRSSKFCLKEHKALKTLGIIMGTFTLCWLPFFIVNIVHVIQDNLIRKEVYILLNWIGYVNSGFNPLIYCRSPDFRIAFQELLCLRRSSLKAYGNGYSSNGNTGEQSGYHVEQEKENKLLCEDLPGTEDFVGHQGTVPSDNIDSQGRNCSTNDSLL
Description: HEK293 cells were transfected with 55 ng/well rat NK1R with N-terminal HA. 11 epitope tag (HA-NK1R) or CLR plus RAMP1 and 40 ng/well FRET biosensors. FRET was assessed 48 h after transfection, following serum restriction (0.5% FBS overnight). For experiments using clathrin or dynamin siRNA, cells were transfected with 55 ng/well rat HA-NK1R, 40 ng/well FRET biosensor and 25 nM/well scrambled, clathrin or dynamin ON-TARGETplus SMARTpool siRNA (GE Dharmacon). FRET was assessed 72 h after transfection, following serum restriction (0.5% FBS overnight). Cells were equilibrated in HBSS at 37° C. and FRET was analyzed using a GE Healthcare INCell 2000 Analyzer. For GFP/RFP emission ratio analysis, cells were sequentially excited using a FITC filter (490/20) with emission measured using dsRed (605/52) and FITC (525/36) filters, and a polychroic optimized for the FITC/dsRed filter pair (Quad4). For CFP/YFP emission ratio analysis, cells were sequentially excited using a CFP filter (430/24) with emission measured using YFP (535/30) and CFP (470/24) filters, and a polychroic optimized for the CFP/YFP filter pair (Quad3). Cells were imaged every 1 min, allowing image capture of 14 wells per minute. Baseline emission ratio images were captured for 4 min. […] Data were analyzed as described and expressed as emission ratios relative to baseline for each cell (F/F0). […]

[1] = Stability in the spinal cord after intrathecal injection to mice; assay type: in vivo, mouse; settings: 10 μM, 5 μl, spinal cord after 3 hours
Description: To assess stability in cerebrospinal fluid, spantide or Compound 1 (10 μg/ml) was incubated in human cerebrospinal fluid (0-4 h, 37° C.), and then snap frozen. Proteins were precipitated using ACN. To assess stability in the spinal cord, spantide or Compound 1 was injected intrathecally to mice (10 μM, 5 μl, L3/L4). After 3 hours, a spinal cord segment 5 mm on either side the injection site was removed and snap frozen. Tissues were crushed with a glass rod in a mixture of methanol (30 μl) and EDTA/KF (60 μl, 0.1 M EDTA, 4 g/l KF), vortexed and centrifuged to remove lipids. Peptides were extracted from the pellet with 0.5% formic acid in 75% ACN/H2O (100 μl). Samples were analyzed assayed by LC/MS using a Waters Xevo TQ or TQD triple quadrupole mass spectrometer coupled to a Waters UPLC. Peptides were separated by HPLC (Supelco Ascentis Express Peptide ES C18 column, 50×2.1 mm, 2.7 μm) with 0.05% formic acid in H2O and ACN as solvents. Peptides were quantified by comparison to calibration standards (50-50,000 ng/ml).

NK1R [2] = molecular target: T2, NK1R (Rattus norvegicus, UniProt P14600); assay: SP-stimulated Ca2+ signaling in HEK-NK1R cells, antagonist mode; assay type: cell-based; parameters: Full length and truncated 6312 rat HA-NK1R have been described; expressed in transfected cells; host or cells: HEK293 (transient); settings: SP 3 nM (EC80), HEK-NK1R cells, 30 min pre-incubation; read-out: pIC50, antagonism of SP-stimulated Ca^2+ signaling (converted)
T2 sequence (P14600 whole entry, the tested form may be a part): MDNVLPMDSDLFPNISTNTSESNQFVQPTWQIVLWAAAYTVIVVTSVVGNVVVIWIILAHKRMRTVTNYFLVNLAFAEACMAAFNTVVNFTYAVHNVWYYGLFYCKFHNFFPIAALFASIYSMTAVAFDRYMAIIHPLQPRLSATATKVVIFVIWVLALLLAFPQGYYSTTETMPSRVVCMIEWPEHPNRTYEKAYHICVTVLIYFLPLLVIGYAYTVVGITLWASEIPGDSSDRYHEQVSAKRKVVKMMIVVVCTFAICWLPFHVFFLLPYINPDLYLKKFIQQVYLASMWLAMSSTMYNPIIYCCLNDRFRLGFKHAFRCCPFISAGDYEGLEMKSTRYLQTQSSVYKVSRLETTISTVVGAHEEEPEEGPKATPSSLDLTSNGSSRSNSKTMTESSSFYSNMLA
Description: [Ca^2+]i was measured as described (Jensen, D. D. et al., J Biol Chem, 2014, 289, 20283-20294). HEK293 cells transiently expressing HA-NK1R or HA-CLR/Myc-RAMP1 were loaded with Fura2-AM (2 μM).

NK1R [3] = molecular target: T2, NK1R; assay: NK1R endocytosis in rat spinal cord slices; assay type: cell-based; settings: Dy4 30 μM; SP 1 μM, 5 min

effect on SP-stimulated NK1R endocytosis in spinal cord slices (NK1R [3])	SMILES	effect on isoprenaline-induced activation of nuclear ERK (β2-adrenergic receptor)	stability after intrathecal injection to mice [1]	IC50 (NK1R [2]) [nM]
–	CC(=O)N[C@@H](CC(=O)O[C@H]1CC[C@@]2(C)[C@@H](CC[C@@H]3[C@@H]2CC[C@]2(C)[C@@H]([C@H](C)CCCC(C)C)CC[C@@H]32)C1)C(=O)NCCOCCOCCOCCOCCC(=O)NCCOCCOCCOCCC(=O)NCCOCCOCCOCCOCCC(=O)N[C@H](CCCNC(=N)N)C(=O)N1CCC[C@H]1C(=O)N[C@@H](CCCCN)C(=O)N1CCC[C@H]1C(=O)N[C@@H](CCC(N)=O)C(=O)N[C@@H](CCC(N)=O)C(=O)N[C@H](Cc1c[nH]c2ccccc12)C(=O)N[C@@H](Cc1ccccc1)C(=O)N[C@H](Cc1c[nH]c2ccccc12)C(=O)N[C@@H](CC(C)C)C(=O)N[C@@H](CC(C)C)C(N)=O [Compound 1] (Ac-D(X1)[PEG4][PEG3][PEG4][dR]PKPQQ[dW]F[dW]LL-NH2)	did not affect	stable	3.63
prevented	O=C(N/N=C/c1cc(O)c(O)cc1O)c1cc2ccccc2cc1O [Dy4]	–	–	–
